We go through 4 compounds from US6387893B1, “Spirotricyclic substituted azacycloalkane derivatives and uses thereof” (Merck & Co., Inc., priority 1999, dated 2002).

In series [1] the target is T1, human alpha 1a adrenergic receptor (Homo sapiens, UniProt P35348).
T1 sequence (P35348 1-466): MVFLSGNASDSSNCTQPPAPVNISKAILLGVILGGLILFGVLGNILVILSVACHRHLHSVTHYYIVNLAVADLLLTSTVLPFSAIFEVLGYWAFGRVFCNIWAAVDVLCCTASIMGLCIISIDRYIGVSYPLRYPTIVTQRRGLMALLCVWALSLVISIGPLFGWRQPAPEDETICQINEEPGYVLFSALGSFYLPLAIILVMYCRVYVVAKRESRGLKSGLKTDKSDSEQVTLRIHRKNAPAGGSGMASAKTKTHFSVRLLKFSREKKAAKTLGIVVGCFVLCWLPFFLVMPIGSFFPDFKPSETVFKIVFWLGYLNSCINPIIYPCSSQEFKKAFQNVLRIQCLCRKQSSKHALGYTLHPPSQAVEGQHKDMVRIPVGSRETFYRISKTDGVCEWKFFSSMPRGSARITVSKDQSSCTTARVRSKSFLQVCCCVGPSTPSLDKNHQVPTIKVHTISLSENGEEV
Put plainly: Screening assay: alpha 1a adrenergic receptor binding ([125I]-HEAT competition). To be noted: membranes from stably transfected human alpha 1a cell line (ATCC CRL 11140), 100 pM [125I]-HEAT. On the procedure: Screening Assay: Alpha 1a Adrenergic Receptor Binding
Membranes prepared from the stably transfected human alpha 1a cell line (ATCC CRL 11140) were used to identify compounds that bind to the human alpha 1a adrenergic receptor. These competition binding reactions (total volume=200 μl) contained 50 mM Tris-HCl pH. 7.4, 5 mM EDTA, 150 mM NaCl, 100 pM [^125I]-HEAT, membranes prepared from the alpha 1a cell line and increasing amounts of unlabeled ligand. Reactions were incubated at room temperature for one hour with shaking. Reactions were filtered onto Whatman GF/C glass fiber filters with a Inotec 96 well cell harvester. Filters were washed three times with ice cold buffer and bound radioactivity was determined (Ki).

Where a name gives a salt, the structure may show the parent alone.

As a reminder, the melting point is the temperature of the solid-liquid transition. In turn, `COCC1=C(C(=O)OC)[C@H](c2ccc(F)c(F)c2)N(C(=O)NCCCN2CCC3(CC2)c2ccccc2-c2cccnc23)C(=O)N1` (as salt: hydrochloride) [Example 53, 1,2,3,6-tetrahydro-1-[3-((spiro(9H-indeno[2,1-b]pyridine)-9,4′-piperidin)-1′-yl)propylaminocarbonyl]-5-methoxycarbonyl-4-methoxymethyl-6(S)-(3,4-difluorophenyl)-2-oxopyrimidine] had a melting point of 201 to 209 °C.
`O=C(NCCCN1CCC2(CC1)c1ccccc1CCc1ccccc12)N1C(=O)OC[C@@H]1c1ccc(F)c(F)c1` (as salt: hydrochloride) [Example 57, 1′-{3-[4(S)-(3,4-difluorophenyl)-2-oxooxazolidin-3-carbonylamino]-propyl}-(10,11-dihydrospiro-5H-dibenzo[a,d]cycloheptene)-5,4′-piperidine] displayed a melting point of 146 to 177 °C.
The same measure, in the same setting: for `O=C1OC[C@H](c2ccc(F)c(F)c2)N1CCCCCN1CCC2(CC1)c1ccccc1CCc1ccccc12` (as salt: hydrochloride) [Example 58, 1′-{5-[4(S)-(3,4-difluorophenyl)-2-oxooxazolidin-3-yl]-pentyl}-(10,11-dihydrospiro-5H-dibenzo[a,d]cycloheptene)-5,4′-piperidine] the value was 232 to 236 °C.
One may read the Ki as the dissociation constant of the complex between target and ligand, obtained from inhibition or displacement. Low readings indicate a stronger hold on the target, high ones a looser hold on the target. For the compound `O=C(NCCCN1CCC2(CC1)c1ccccc1Oc1ccccc12)N1C(=O)OC[C@@H]1c1ccc(F)c(F)c1` [Example 35, 1′-{3-[(4S)-(3,4-Difluorophenyl)-2-oxooxazolidin-3-carbonylamino]propyl}spiroxanthene-9,4′-piperidine], the melting point was 138 to 139 °C. In series [1], this compound displayed a Ki of less than 20 nM.
